Several values for one entry are separate records, joined by “and”; a condition that tells them apart may be missing. Equal values may be shown once.
Tested on: WM3248 melanoma cells, 486 antibodies
Experiment: Reverse phase protein arrays (RPPA)
Format: cell-based, Human
Source text: Pellets were snap frozen in liquid nitrogen and shipped to MD Anderson Cancer Center core RPPA facility for RPPA analysis (Table S5). Three biological replicates for each sample were generated.
Nomenclatures on the RPPA heatmaps: name_of_antibody.species_of_antibody.status_of_antibody. V - antibody validated; C - validation of antibody in progress; Q - antibody nonspecific; E – under evaluation; antibodies raised in M - mouse, G - goat, R - rabbit, or T - rat.

With CN(C)c1cccc(Nc2cc(-c3ccccc3)nc(C3CCNCC3)n2)c1 [ARN22089, N1,N1-dimethyl-N3-(6-phenyl-2-(piperidin-4-yl)pyrimidin-4-yl)benzene-1,3-diamine] the “RPPA DNMT1.R.V” value (20 uM, single samples) was 0.983 and 0.756 and 0.985, the “RPPA DRP1.R.V” value (20 uM, single samples) was 0.965 and the “RPPA DUSP6.R.C” value (20 uM, single samples) was 1.060 and 1.859 and 1.429. For the same molecule, the “RPPA DYRK1B.R.C” value (20 uM, single samples) was 1.009 and 1.052 and 0.953, the “RPPA Dvl3.R.V” value (20 uM, single samples) was 0.950 and 1.123 and the “RPPA E2F1.R.V” value (20 uM, single samples) was 1.419 and 1.315 and 0.981. The “RPPA E.Cadherin.R.V” value (20 uM, single samples) was 0.828 and 1.005, the “RPPA EGFR.R.V” value (20 uM, single samples) was 1.031 and 1.102 and 1.106 and the “RPPA EGFR_pY1068.R.C” value (20 uM, single samples) was 0.990 and 0.986. For the same molecule, the “RPPA EGFR_pY1173.R.V” value (20 uM, single samples) was 1.027 and 1.077 and 1.112, the “RPPA EMA.M.C” value (20 uM, single samples) was 0.905 and 0.939 and 0.944 and the “RPPA ENY2.M.C” value (20 uM, single samples) was 0.965 and 0.851 and 0.977. The “RPPA ER.a.R.V” value (20 uM, single samples) was 0.767 and 0.993 and 1.203, the “RPPA ERCC1.R.C” value (20 uM, single samples) was 1.137 and 1.100 and 0.957 and the “RPPA ERCC5.R.C” value (20 uM, single samples) was 1.157 and 0.901 and 0.984. For the same molecule, the “RPPA ERRalpha.R.V” value (20 uM, single samples) was 0.962 and 1.097 and 0.968, the “RPPA EVI1.R.V” value (20 uM, single samples) was 1.169 and 1.023 and 0.918 and the “RPPA Elk1_pS383.R.C” value (20 uM, single samples) was 1.006 and 1.163 and 1.131. The “RPPA Enolase.1.R.V” value (20 uM, single samples) was 1.058 and 0.770 and 0.988, the “RPPA Enolase.2.R.V” value (20 uM, single samples) was 1.052 and 0.967 and 0.953 and the “RPPA EphA2.R.V” value (20 uM, single samples) was 0.650 and 0.867 and 0.932. For the same molecule, the “RPPA EphA2_pY588.R.C” value (20 uM, single samples) was 1.102 and 1.013 and 0.933, the “RPPA Erk5.R.V” value (20 uM, single samples) was 0.870 and 0.876 and the “RPPA Ets.1.R.V” value (20 uM, single samples) was 1.428 and 0.989. The “RPPA FABP5.R.C” value (20 uM, single samples) was 1.054 and 0.987 and 1.035, the “RPPA FAK.R.C” value (20 uM, single samples) was 0.799 and 1.003 and 1.205 and the “RPPA FAK_pY397.R.V” value (20 uM, single samples) was 0.986 and 1.046 and 0.989. For the same molecule, the “RPPA FANCD2.R.V” value (20 uM, single samples) was 0.998 and 0.872 and 0.901, the “RPPA FASN.R.V” value (20 uM, single samples) was 1.033 and 0.807 and 0.695 and the “RPPA FGF.basic.R.C” value (20 uM, single samples) was 0.959 and 0.928. For the same molecule, the “RPPA FN14.R.C” value (20 uM, single samples) was 0.830 and 1.031 and 1.337, the “RPPA FOXM1.R.V” value (20 uM, single samples) was 1.401 and 0.852 and 0.917 and the “RPPA FOXO3.R.V” value (20 uM, single samples) was 1.030 and 0.990. For the same molecule, the “RPPA FRS2.alpha_pY196.R.V” value (20 uM, single samples) was 0.974 and 1.050 and 1.002, the “RPPA FTO.R.V” value (20 uM, single samples) was 1.174 and 0.828 and 0.929 and the “RPPA Fibronectin.R.V” value (20 uM, single samples) was 0.643 and 1.194 and 1.130. For the same molecule, the “RPPA FoxO3a_pS318_S321.R.C” value (20 uM, single samples) was 1.008 and 0.941, the “RPPA G6PD.R.V” value (20 uM, single samples) was 0.989 and 0.985 and 0.975 and the “RPPA GATA3.M.V” value (20 uM, single samples) was 1.212 and 0.968. The “RPPA GATA6.R.V” value (20 uM, single samples) was 1.033 and 0.956 and 0.952, the “RPPA GCLC.R.C” value (20 uM, single samples) was 0.868 and 1.160 and the “RPPA GCLM.R.V” value (20 uM, single samples) was 1.077 and 0.945 and 0.973. The “RPPA GCN5L2.R.V” value (20 uM, single samples) was 0.869 and 0.957, the “RPPA GGPS1.M.V” value (20 uM, single samples) was 1.005 and 0.891 and 0.957 and the “RPPA GRB2.R.V” value (20 uM, single samples) was 0.953 and 0.884 and 1.030. For the same molecule, the “RPPA GRB7.R.V” value (20 uM, single samples) was 0.848 and 1.110 and 1.171, the “RPPA GSK.3B.R.C” value (20 uM, single samples) was 0.916 and 0.817 and 0.970 and the “RPPA GSK.3a.b.M.V” value (20 uM, single samples) was 1.009 and 0.884 and 0.977. For the same molecule, the “RPPA GSK.3a.b_pS21_S9.R.V” value (20 uM, single samples) was 0.956 and 1.173 and 1.028, the “RPPA Gab2.R.V” value (20 uM, single samples) was 1.465 and 0.881 and 0.921 and the “RPPA Gli1.R.C” value (20 uM, single samples) was 0.959 and 0.928 and 0.972. The “RPPA Gli3.R.C” value (20 uM, single samples) was 1.201, the “RPPA Glucocorticoid.Receptor.R.V” value (20 uM, single samples) was 1.195 and 1.220 and 0.975 and the “RPPA Glutamate.D1.2.R.V” value (20 uM, single samples) was 1.284 and 0.987 and 1.014. For the same molecule, the “RPPA Glutaminase.R.C” value (20 uM, single samples) was 1.004 and 0.974 and 1.096, the “RPPA Granzyme.B.R.V” value (20 uM, single samples) was 1.019 and 1.152 and 1.098 and the “RPPA Grp75.R.C” value (20 uM, single samples) was 1.682 and 0.883 and 0.952. The “RPPA Gys.R.V” value (20 uM, single samples) was 0.810 and 1.025 and 1.174, the “RPPA Gys_pS641.R.V” value (20 uM, single samples) was 0.658 and 0.955 and the “RPPA H2AX_pS140.M.C” value (20 uM, single samples) was 1.144 and 1.344 and 0.957. For the same molecule, the “RPPA HER2.M.V” value (20 uM, single samples) was 1.022 and 0.960, the “RPPA HER2_pY1248.R.V” value (20 uM, single samples) was 1.010 and 1.097 and the “RPPA HER3.R.V” value (20 uM, single samples) was 1.052 and 0.876 and 0.821. For the same molecule, the “RPPA HER3_pY1289.R.C” value (20 uM, single samples) was 1.023 and 0.933, the “RPPA HES1.R.V” value (20 uM, single samples) was 0.979 and 1.109 and 1.059 and the “RPPA Heregulin.R.V” value (20 uM, single samples) was 0.854 and 1.034 and 1.150. For the same molecule, the “RPPA eEF2.R.C” value (20 uM, single samples) was 1.353 and 0.930 and 0.976, the “RPPA eEF2K.R.V” value (20 uM, single samples) was 1.420 and 1.250 and 1.117 and the “RPPA eIF4E.R.V” value (20 uM, single samples) was 0.957 and 1.295 and 1.239. The “RPPA eIF4E_pS209.R.V” value (20 uM, single samples) was 0.903 and 1.310, the “RPPA eIF4G.R.C” value (20 uM, single samples) was 1.450 and 0.906 and 0.991 and the “DNMT1.R.V Norm_5 Average” value (5, average, normalized to 0) was 1.028. For the same molecule, the “DRP1.R.V Norm_5 Average” value (5, average, normalized to 0) was 1.024, the “DUSP4.R.V Norm_5 Average” value (5, average, normalized to 0) was 1.106 and the “DUSP6.R.C Norm_5 Average” value (5, average, normalized to 0) was 1.186. For the same molecule, the “DYRK1B.R.C Norm_5 Average” value (5, average, normalized to 0) was 0.920, the “Dvl3.R.V Norm_5 Average” value (5, average, normalized to 0) was 0.989 and the “E2F1.R.V Norm_5 Average” value (5, average, normalized to 0) was 0.971. The “E.Cadherin.R.V Norm_5 Average” value (5, average, normalized to 0) was 0.851, the “EGFR.R.V Norm_5 Average” value (5, average, normalized to 0) was 1.030 and the “EGFR_pY1068.R.C Norm_5 Average” value (5, average, normalized to 0) was 0.934. For the same molecule, the “EGFR_pY1173.R.V Norm_5 Average” value (5, average, normalized to 0) was 1.022.

Source: PMC9127750, “Structure-based design of CDC42 effector interaction inhibitors for the treatment of cancer” (Cell reports, 2022)
